Source: ChEMBL document CHEMBL4507264, “Data for DCP probe BAY-7598” (2021)

Experiments:
[1] = system: Tyrosine-protein kinase ABL1 (Homo sapiens), P00519 [F317I]; conditions: Compound concentration 1000.0 nM
[2] = biological target: Ankyrin repeat and protein kinase domain-containing protein 1 (Homo sapiens) (UniProt Q8NFD2); conditions: Compound concentration 1000.0 nM
[3] = biological target: NUAK family SNF1-like kinase 1 (Homo sapiens) (UniProt O60285); conditions: Compound concentration 1000.0 nM
[4] = biological target: Calcium/calmodulin-dependent protein kinase type 1 (Homo sapiens) (UniProt Q14012); conditions: Compound concentration 1000.0 nM
[5] = biological target: Calcium/calmodulin-dependent protein kinase type II subunit beta (Homo sapiens) (UniProt Q13554); conditions: Compound concentration 1000.0 nM
[6] = biological target: Calcium/calmodulin-dependent protein kinase type II subunit gamma (Homo sapiens) (UniProt Q13555); conditions: Compound concentration 1000.0 nM
Calcium/calmodulin-dependent protein kinase type II subunit gamma (Homo sapiens), sequence (Q13555 whole entry): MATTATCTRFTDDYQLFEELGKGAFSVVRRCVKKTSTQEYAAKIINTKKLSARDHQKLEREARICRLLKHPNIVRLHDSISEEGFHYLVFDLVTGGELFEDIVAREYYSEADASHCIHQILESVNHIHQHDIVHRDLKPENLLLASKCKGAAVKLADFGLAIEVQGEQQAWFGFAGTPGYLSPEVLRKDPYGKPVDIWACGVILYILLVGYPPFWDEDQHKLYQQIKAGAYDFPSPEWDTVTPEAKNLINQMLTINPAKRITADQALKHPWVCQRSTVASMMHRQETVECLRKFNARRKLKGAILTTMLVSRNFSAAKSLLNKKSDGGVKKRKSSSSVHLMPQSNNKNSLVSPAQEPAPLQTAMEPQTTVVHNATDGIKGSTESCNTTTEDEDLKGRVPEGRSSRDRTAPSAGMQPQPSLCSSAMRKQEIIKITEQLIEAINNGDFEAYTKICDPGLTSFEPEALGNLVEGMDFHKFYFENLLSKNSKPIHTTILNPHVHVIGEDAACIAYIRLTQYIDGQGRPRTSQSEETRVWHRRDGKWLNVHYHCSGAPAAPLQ

[7] = biological target: Cyclin-dependent kinase 4 (Homo sapiens) (UniProt P11802); conditions: Compound concentration 1000.0 nM
[8] = biological target: Cyclin-dependent kinase-like 5 (Homo sapiens) (UniProt O76039); conditions: Compound concentration 1000.0 nM
[9] = biological target: Serine/threonine-protein kinase Chk2 (Homo sapiens) (UniProt O96017); conditions: Compound concentration 1000.0 nM
[10] = biological target: Serine/threonine-protein kinase 17A (Homo sapiens) (UniProt Q9UEE5); conditions: Compound concentration 1000.0 nM
[11] = biological target: Epidermal growth factor receptor (Homo sapiens) (UniProt P00533); conditions: Compound concentration 1000.0 nM
[12] = system: Epidermal growth factor receptor (Homo sapiens), P00533 [UNDEFINED MUTATION]; conditions: Compound concentration 1000.0 nM
[13] = biological target: Ephrin type-B receptor 3 (Homo sapiens) (UniProt P54753); conditions: Compound concentration 1000.0 nM
[14] = biological target: Mitogen-activated protein kinase 6 (Homo sapiens) (UniProt Q16659); conditions: Compound concentration 1000.0 nM
Mitogen-activated protein kinase 6 (Homo sapiens), sequence (Q16659 whole entry): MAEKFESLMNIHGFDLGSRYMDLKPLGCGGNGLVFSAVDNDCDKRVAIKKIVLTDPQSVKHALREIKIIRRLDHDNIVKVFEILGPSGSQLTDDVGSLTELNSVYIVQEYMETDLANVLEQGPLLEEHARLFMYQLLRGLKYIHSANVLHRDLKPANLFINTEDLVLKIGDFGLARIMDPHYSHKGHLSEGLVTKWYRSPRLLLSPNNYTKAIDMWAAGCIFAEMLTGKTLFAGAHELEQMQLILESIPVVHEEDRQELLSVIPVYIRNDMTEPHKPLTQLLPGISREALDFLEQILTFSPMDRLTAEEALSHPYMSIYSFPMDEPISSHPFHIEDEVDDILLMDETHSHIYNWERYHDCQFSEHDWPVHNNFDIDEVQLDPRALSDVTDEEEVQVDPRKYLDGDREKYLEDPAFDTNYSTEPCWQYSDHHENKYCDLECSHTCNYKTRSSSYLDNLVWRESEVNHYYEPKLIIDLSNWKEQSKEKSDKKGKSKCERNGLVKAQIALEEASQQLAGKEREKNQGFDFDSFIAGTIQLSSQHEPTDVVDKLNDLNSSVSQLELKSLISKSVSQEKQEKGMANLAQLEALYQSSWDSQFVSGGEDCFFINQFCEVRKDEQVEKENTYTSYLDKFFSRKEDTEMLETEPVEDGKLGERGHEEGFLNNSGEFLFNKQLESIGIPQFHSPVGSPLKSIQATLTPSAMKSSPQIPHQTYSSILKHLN

[15] = biological target: Tyrosine-protein kinase Fes/Fps (Homo sapiens) (UniProt P07332); conditions: Compound concentration 1000.0 nM
Tyrosine-protein kinase Fes/Fps (Homo sapiens), sequence (P07332 whole entry): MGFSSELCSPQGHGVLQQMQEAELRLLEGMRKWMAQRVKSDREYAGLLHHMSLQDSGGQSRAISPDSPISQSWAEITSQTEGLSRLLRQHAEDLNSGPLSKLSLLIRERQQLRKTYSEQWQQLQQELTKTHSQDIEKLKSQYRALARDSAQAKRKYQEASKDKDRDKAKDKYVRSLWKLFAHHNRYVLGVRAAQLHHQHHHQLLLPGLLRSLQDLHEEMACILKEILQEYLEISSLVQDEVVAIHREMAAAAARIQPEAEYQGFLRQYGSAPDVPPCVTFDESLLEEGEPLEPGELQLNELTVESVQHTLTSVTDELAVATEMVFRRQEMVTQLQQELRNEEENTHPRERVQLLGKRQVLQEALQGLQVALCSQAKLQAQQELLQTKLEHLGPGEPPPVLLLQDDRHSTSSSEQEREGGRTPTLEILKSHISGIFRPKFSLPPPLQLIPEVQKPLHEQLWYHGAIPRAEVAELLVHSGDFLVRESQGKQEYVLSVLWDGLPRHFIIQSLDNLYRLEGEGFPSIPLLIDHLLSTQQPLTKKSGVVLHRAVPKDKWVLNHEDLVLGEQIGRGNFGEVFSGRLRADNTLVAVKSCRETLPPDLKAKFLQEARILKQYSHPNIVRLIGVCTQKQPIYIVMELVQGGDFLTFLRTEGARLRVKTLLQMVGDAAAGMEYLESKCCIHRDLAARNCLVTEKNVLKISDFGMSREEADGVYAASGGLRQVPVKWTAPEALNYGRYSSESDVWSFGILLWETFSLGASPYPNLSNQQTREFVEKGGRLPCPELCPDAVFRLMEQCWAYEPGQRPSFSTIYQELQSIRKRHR

[16] = biological target: Tyrosine-protein kinase Fgr (Homo sapiens) (UniProt P09769); conditions: Compound concentration 1000.0 nM
[17] = biological target: Vascular endothelial growth factor receptor 3 (Homo sapiens) (UniProt P35916); conditions: Compound concentration 1000.0 nM
[18] = biological target: Glycogen synthase kinase-3 beta (Homo sapiens) (UniProt P49841); conditions: Compound concentration 1000.0 nM
[19] = biological target: Mitogen-activated protein kinase 8 (Homo sapiens) (UniProt P45983); conditions: Compound concentration 1000.0 nM
[20] = biological target: Serine/threonine-protein kinase LATS1 (Homo sapiens) (UniProt O95835); conditions: Compound concentration 1000.0 nM
[21] = biological target: Serine/threonine-protein kinase MAK (Homo sapiens) (UniProt P20794); conditions: Compound concentration 1000.0 nM
[22] = biological target: MAP kinase-interacting serine/threonine-protein kinase 2 (Homo sapiens) (UniProt Q9HBH9); conditions: Compound concentration 1000.0 nM
[23] = biological target: Macrophage-stimulating protein receptor (Homo sapiens) (UniProt Q04912); conditions: Compound concentration 1000.0 nM
[24] = biological target: Serine/threonine-protein kinase 26 (Homo sapiens) (UniProt Q9P289); conditions: Compound concentration 1000.0 nM
[25] = biological target: Serine/threonine-protein kinase PAK 1 (Homo sapiens) (UniProt Q13153); conditions: Compound concentration 1000.0 nM
[26] = biological target: Serine/threonine-protein kinase PAK 4 (Homo sapiens) (UniProt O96013); conditions: Compound concentration 1000.0 nM
Serine/threonine-protein kinase PAK 4 (Homo sapiens), sequence (O96013 whole entry, looked up): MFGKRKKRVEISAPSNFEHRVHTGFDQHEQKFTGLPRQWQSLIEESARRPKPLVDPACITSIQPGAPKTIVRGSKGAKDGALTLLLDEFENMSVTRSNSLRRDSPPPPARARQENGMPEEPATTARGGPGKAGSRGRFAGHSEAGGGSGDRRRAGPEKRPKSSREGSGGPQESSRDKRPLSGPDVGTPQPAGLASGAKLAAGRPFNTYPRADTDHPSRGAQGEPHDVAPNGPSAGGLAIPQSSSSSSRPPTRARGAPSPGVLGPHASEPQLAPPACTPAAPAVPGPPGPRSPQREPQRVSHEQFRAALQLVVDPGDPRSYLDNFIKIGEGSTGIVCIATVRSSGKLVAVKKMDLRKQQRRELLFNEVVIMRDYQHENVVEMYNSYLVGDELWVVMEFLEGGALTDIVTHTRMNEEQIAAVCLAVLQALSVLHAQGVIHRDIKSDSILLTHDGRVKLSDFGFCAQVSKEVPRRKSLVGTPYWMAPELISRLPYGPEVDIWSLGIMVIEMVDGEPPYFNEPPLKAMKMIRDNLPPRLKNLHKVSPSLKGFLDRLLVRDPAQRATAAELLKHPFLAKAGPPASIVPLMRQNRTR

[27] = biological target: Platelet-derived growth factor receptor alpha (Homo sapiens) (UniProt P16234); conditions: Compound concentration 1000.0 nM
[28] = biological target: Phosphorylase b kinase gamma catalytic chain, skeletal muscle/heart isoform (Homo sapiens) (UniProt Q16816); conditions: Compound concentration 1000.0 nM
[29] = biological target: Phosphatidylinositol 5-phosphate 4-kinase type-2 beta (Homo sapiens) (UniProt P78356); conditions: Compound concentration 1000.0 nM
[30] = biological target: Serine/threonine-protein kinase PknB (Mycobacterium tuberculosis) (UniProt P9WI81); conditions: Compound concentration 1000.0 nM
[31] = biological target: cAMP-dependent protein kinase catalytic subunit PRKX (Homo sapiens) (UniProt P51817); conditions: Compound concentration 1000.0 nM
[32] = biological target: Serine/threonine-protein kinase PRP4 homolog (Homo sapiens) (UniProt Q13523); conditions: Compound concentration 1000.0 nM
[33] = system: Proto-oncogene tyrosine-protein kinase receptor Ret (Homo sapiens), P07949 [M918T]; conditions: Compound concentration 1000.0 nM
[34] = biological target: Receptor-interacting serine/threonine-protein kinase 2 (Homo sapiens) (UniProt O43353); conditions: Compound concentration 1000.0 nM
[35] = biological target: Ribosomal protein S6 kinase alpha-6 (Homo sapiens) (UniProt Q9UK32); conditions: Compound concentration 1000.0 nM
[36] = biological target: Uncharacterized serine/threonine-protein kinase SBK3 (Homo sapiens) (UniProt P0C264); conditions: Compound concentration 1000.0 nM
Uncharacterized serine/threonine-protein kinase SBK3 (Homo sapiens), sequence (P0C264 whole entry): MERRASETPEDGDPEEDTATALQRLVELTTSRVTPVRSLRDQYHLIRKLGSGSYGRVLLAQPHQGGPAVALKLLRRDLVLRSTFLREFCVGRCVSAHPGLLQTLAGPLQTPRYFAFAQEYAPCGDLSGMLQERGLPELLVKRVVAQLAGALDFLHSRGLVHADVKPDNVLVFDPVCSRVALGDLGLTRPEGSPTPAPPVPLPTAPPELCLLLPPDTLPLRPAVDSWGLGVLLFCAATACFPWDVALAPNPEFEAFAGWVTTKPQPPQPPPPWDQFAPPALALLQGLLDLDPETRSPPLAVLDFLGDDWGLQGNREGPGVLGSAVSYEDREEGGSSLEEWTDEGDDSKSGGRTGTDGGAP

[37] = biological target: NUAK family SNF1-like kinase 2 (Homo sapiens) (UniProt Q9H093); conditions: Compound concentration 1000.0 nM
NUAK family SNF1-like kinase 2 (Homo sapiens), sequence (Q9H093 whole entry): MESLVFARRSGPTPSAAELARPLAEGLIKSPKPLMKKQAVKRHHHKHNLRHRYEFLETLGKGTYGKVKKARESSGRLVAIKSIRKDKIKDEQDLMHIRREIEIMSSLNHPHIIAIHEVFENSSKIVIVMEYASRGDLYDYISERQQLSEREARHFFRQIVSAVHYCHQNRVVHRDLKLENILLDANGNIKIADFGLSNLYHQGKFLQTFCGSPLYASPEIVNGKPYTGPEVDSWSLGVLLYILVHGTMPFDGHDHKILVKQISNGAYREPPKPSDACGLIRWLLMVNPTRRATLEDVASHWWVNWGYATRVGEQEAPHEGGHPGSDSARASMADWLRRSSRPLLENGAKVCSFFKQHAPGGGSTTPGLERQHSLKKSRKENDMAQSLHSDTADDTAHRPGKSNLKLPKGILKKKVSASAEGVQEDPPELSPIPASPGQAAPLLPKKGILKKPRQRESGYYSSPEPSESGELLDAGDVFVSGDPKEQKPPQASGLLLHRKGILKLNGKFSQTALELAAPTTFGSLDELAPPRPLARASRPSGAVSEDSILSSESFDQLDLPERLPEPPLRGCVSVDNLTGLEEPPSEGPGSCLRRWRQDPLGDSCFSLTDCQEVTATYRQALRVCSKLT

[38] = biological target: SRSF protein kinase 2 (Homo sapiens) (UniProt P78362); conditions: Compound concentration 1000.0 nM
SRSF protein kinase 2 (Homo sapiens), sequence (P78362 whole entry, looked up): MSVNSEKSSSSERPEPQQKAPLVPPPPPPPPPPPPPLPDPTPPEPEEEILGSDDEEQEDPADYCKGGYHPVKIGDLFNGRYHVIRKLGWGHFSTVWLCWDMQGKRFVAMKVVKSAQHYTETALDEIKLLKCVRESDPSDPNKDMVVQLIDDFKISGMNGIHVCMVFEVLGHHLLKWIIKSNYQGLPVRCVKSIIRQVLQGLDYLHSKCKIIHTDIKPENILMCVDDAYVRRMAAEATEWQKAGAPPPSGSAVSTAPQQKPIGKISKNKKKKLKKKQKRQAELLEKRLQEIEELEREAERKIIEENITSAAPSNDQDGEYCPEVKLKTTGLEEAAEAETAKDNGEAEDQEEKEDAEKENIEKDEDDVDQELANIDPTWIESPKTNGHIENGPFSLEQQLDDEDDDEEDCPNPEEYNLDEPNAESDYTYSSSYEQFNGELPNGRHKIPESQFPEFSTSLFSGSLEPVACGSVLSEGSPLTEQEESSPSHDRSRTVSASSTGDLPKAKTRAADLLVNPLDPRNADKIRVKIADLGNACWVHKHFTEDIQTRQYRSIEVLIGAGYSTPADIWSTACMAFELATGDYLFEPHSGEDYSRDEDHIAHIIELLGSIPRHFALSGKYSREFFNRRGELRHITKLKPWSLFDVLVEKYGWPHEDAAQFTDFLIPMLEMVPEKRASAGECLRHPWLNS

[39] = biological target: Serine/threonine-protein kinase 33 (Homo sapiens) (UniProt Q9BYT3); conditions: Compound concentration 1000.0 nM
[40] = biological target: Serine/threonine-protein kinase 35 (Homo sapiens) (UniProt Q8TDR2); conditions: Compound concentration 1000.0 nM
[41] = biological target: Serine/threonine-protein kinase tousled-like 2 (Homo sapiens) (UniProt Q86UE8); conditions: Compound concentration 1000.0 nM
[42] = biological target: Dual specificity protein kinase TTK (Homo sapiens) (UniProt P33981); conditions: Compound concentration 1000.0 nM
[43] = biological target: Wee1-like protein kinase 2 (Homo sapiens) (UniProt P0C1S8); conditions: Compound concentration 1000.0 nM
[44] = biological target: Serine/threonine-protein kinase 25 (Homo sapiens) (UniProt O00506); conditions: Compound concentration 1000.0 nM
Serine/threonine-protein kinase 25 (Homo sapiens), sequence (O00506 whole entry, looked up): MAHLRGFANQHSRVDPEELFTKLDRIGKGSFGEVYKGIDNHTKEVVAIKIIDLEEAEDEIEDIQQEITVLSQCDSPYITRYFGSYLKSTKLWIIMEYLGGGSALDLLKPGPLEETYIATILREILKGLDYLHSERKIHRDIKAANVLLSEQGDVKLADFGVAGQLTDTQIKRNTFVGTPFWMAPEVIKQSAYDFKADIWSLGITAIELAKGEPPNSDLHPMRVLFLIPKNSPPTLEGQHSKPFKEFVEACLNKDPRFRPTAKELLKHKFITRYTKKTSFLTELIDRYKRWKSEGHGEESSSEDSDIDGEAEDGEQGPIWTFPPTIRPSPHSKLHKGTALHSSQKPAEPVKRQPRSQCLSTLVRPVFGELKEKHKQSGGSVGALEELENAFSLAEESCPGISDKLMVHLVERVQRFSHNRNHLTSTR

[45] = biological target: Sigma intracellular receptor 2 (Homo sapiens) (UniProt Q5BJF2); conditions: Compound concentration 10.0 uM
Sigma intracellular receptor 2 (Homo sapiens), sequence (Q5BJF2 whole entry): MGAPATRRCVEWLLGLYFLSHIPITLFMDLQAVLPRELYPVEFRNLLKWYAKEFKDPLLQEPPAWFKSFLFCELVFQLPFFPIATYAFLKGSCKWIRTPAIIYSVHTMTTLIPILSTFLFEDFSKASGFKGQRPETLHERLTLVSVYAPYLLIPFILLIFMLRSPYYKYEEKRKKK

O=C(O)[C@@H]1[C@@H](Cn2nnc3ccccc3c2=O)CC[C@H]1C(=O)c1ccc(OCCC2CCOCC2)cc1 [BAY-694]
residual activity [1]: 100%
residual activity [2]: 100%
residual activity [3]: 84%
residual activity [4]: 92%
residual activity [5]: 100%
residual activity [6]: 100%
residual activity [7]: 86%
residual activity [8]: 96%
residual activity [9]: 100%
residual activity [10]: 98%
residual activity [11]: 90%
residual activity [12]: 95%
residual activity [13]: 100%
residual activity [14]: 100%
residual activity [15]: 100%
residual activity [16]: 100%
residual activity [17]: 100%
residual activity [18]: 100%
residual activity [19]: 100%
residual activity [20]: 90%
residual activity [21]: 78%
residual activity [22]: 99%
residual activity [23]: 91%
residual activity [24]: 100%
residual activity [25]: 95%
residual activity [26]: 89%
residual activity [27]: 100%
residual activity [28]: 100%
residual activity [29]: 81%
residual activity [30]: 94%
residual activity [31]: 100%
residual activity [32]: 80%
residual activity [33]: 100%
residual activity [34]: 97%
residual activity [35]: 100%
residual activity [36]: 43%
residual activity [37]: 100%
residual activity [38]: 100%
residual activity [39]: 69%
residual activity [40]: 100%
residual activity [41]: 93%
residual activity [42]: 89%
residual activity [43]: 100%
residual activity [44]: 87%
inhibition [45]: 39.3%

O=C(O)[C@H]1[C@H](Cn2nnc3ccccc3c2=O)CC[C@@H]1C(=O)c1ccc(OCCC2CCOCC2)cc1 [BAY-7598]
residual activity [1]: 100%
residual activity [2]: 100%
residual activity [3]: 71%
residual activity [4]: 100%
residual activity [5]: 100%
residual activity [6]: 90%
residual activity [7]: 96%
residual activity [8]: 85%
residual activity [9]: 100%
residual activity [10]: 97%
residual activity [11]: 88%
residual activity [12]: 80%
residual activity [13]: 89%
residual activity [14]: 90%
residual activity [15]: 100%
residual activity [16]: 86%
residual activity [17]: 81%
residual activity [18]: 100%
residual activity [19]: 72%
residual activity [20]: 84%
residual activity [21]: 95%
residual activity [22]: 83%
residual activity [23]: 96%
residual activity [24]: 87%
residual activity [25]: 83%
residual activity [26]: 91%
residual activity [27]: 100%
residual activity [28]: 74%
residual activity [29]: 84%
residual activity [30]: 77%
residual activity [31]: 93%
residual activity [32]: 67%
residual activity [33]: 76%
residual activity [34]: 100%
residual activity [35]: 97%
residual activity [36]: 100%
residual activity [37]: 100%
residual activity [38]: 100%
residual activity [39]: 98%
residual activity [40]: 100%
residual activity [41]: 98%
residual activity [42]: 83%
residual activity [43]: 100%
residual activity [44]: 90%
inhibition [45]: 28.5%
